# Laboratory results taken from US12715891B2, “Iron complexes and salts thereof as contrast agents for MRI” (BRACCO IMAGING S.P.A., priority 2020, dated 2026).
# Legend:
# [1] = tested on: mice inoculated with tumour cells (ISA); experiment: In vivo MRI contrast enhancement (En %); conditions: 0.1 mmol/Kg
# Experimental: The increase in contrast (En %) generated by the administration of the complex according to the present invention Fe(DFX)2, obtained as per Example 1 (0.1 mmol/Kg), was measured and compared with the one induced by the Gd-DTPA complex (known by the trade name of Magnevist) at the same dose and under the same experimental conditions. The measurements were performed (in vivo), under a fixed magnetic field of 3T and 7T, in mice inoculated with tumour cells (ISA). The images were acquired when the size of the subcutaneous tumour had reached about 1-2 cm (i.e. about 15-20 days after inoculation).
# [2] = Fixed-field relaxometric measurements in human serum and in water; format: physicochemical; conditions: for r1p / r2p: 1 T, 37° C.
# Experimental: Fixed-field relaxometric measurements were performed using the [Fe(DFX)2Meg3] complex obtained as per Example 1, comparing it with two prior art complexes, Gd-DTPA and Fe-DTPA.
structure (smiles),measurement,setting,value
"CNC[C@H](O)[C@@H](O)[C@H](O)[C@H](O)CO.CNC[C@H](O)[C@@H](O)[C@H](O)[C@H](O)CO.O=C([O-])CN(CCN(CC(=O)[O-])CC(=O)O)CCN(CC(=O)[O-])CC(=O)O.[Gd+3] [Gd-DTPA, gadopentetic acid]",renal excretion (kidneys and bladder contrast) compared with Fe(DFX)2,[1],more rapid renal excretion
same,r1p,[2]; Human serum,"4.1 (1 T, 37° C.)"
same,r2p,[2]; Human serum,"4.8 (1 T, 37° C.)"
same,relaxivity in human serum,"[2]; human serum, 37° C. and 1T",3.4 mM⁻¹ s⁻¹
same,r1p,[2]; water,"3.4 (1 T, 37° C.)"
same,r2p,[2]; water,"3.9 (1 T, 37° C.)"
